# Experimental data from patent US6143764A, “Quinoline and quinazoline derivatives inhibiting platelet-derived growth factor receptor autophosphorylation and pharmaceutical compositions containing the same” (priority 1995, dated 2000).
# Target: T1, PDGF receptor (Rattus norvegicus, UniProt Q05030)
# T1 construct: cultured rat mesangial cells which are known to have the PDGF receptor; endogenous in cells; host or cells: primary mesangial cells cultured from glomeruli of Wistar-Kyoto rats (Charles River Japan), more than 5 passages
# T1 sequence (Q05030 32-1097): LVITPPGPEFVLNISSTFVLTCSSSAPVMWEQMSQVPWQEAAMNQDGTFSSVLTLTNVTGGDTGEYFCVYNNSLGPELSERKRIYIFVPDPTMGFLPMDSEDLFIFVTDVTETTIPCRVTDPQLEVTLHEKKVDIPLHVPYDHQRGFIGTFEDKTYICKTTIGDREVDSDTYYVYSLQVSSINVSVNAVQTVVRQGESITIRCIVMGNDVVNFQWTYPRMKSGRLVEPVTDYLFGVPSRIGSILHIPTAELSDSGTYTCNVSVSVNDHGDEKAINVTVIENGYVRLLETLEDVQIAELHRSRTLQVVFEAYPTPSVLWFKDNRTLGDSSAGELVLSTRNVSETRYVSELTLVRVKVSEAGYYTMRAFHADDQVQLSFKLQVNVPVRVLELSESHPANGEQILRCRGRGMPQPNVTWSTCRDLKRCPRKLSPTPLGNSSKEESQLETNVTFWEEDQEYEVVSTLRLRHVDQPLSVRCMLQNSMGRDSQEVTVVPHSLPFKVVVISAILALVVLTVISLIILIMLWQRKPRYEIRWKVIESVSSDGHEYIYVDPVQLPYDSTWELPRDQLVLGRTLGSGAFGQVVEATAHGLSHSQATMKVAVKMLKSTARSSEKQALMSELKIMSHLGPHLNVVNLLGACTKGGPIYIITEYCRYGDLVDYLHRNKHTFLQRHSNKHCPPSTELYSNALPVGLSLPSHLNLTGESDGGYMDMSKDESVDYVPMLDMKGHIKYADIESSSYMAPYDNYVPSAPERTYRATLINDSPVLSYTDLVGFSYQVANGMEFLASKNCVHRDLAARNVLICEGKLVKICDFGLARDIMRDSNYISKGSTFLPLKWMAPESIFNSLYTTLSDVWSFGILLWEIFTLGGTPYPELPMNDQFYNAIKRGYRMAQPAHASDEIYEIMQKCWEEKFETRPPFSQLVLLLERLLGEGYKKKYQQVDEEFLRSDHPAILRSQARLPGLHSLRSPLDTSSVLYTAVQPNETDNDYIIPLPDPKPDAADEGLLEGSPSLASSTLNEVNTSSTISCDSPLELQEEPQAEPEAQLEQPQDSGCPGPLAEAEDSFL
# Assay: PDGF receptor autophosphorylation inhibition in cultured rat mesangial cells
# Assay type: cell-based
# Conditions: PDGF-BB 50 ng/ml
# Experimental: 1. Cultivation of rat mesangial cells
# The glomerulus-derived adhesive cells were subcultured several times to obtain mesangial cells. The mesangial cells subcultured more than 5 passages were used for the assay.
# 2.Evaluation of PDGF receptor autophosphorylation inhibition
# The mesangial cells were seeded in 24-well flat-bottom microtiter plates and then cultured in the medium containing 10% FCS for 2 days. When the cells were grown to about 3×10^4 cells per well, the medium was changed to the medium containing 0.5% FCS, the cultivation was continued for another 3 days, and then cell growth was arrested. The culture medium was removed, the adhered cells were washed with 500 μl of the medium, and 250 μl of the medium containing 0.1% bovine serum albumin (hereinafter abbreviated to BSA) was then added. A test drug dissolved in 1.38 μl of dimethyl sulfoxide (hereinafter abbreviated to DMSO) was added to this culture medium, and the admixture was incubated at 37° C. for 1 hour. Recombinant human platelet-derived growth factor BB chain (hereinafter abbreviated to PDGF-BB) was dissolved in the medium containing 0.1% BSA, 25 μl per well of the solution was added at final 50 ng/ml, and the incubation was continued at 37° C. for 10 minutes. […] The cells were allowed to stand at 4° C. for 30 minutes for lysis, and the resulting solution was thoroughly admixed with an equal amount of Tris-buffered physiological saline containing 1% sodium dodecyl sulfate (hereinafter abbreviated to SDS). […] After the electrophoresis, proteins in the gel were electrically transferred to a PVDF filter, which was then subjected to Western blotting using monoclonal antibodies against phosphotyrosine. Bands of PDGF receptor (molecular weight: about 180 Kda) which were autophosphorylated due to the addition of PDGF-BB were quantitated by a densitometer. Autophosphorylation rates for individual wells with drugs were calculated by setting measurements for PDGF receptor autophosphorylation in the wells without drugs in the presence and absence of PDGF-BB as 100% and 0%, respectively.
row,Compound,IC50 [nM]
1,COc1cc2nccc(Oc3ccc(NC(=O)Nc4ccc(SC)cc4)cc3)c2cc1OC [Compound 163],5
2,"COc1ccc(OC)c(NC(=O)Nc2ccc(Oc3ccnc4cc(OC)c(OC)cc34)cc2)c1 [Compound 258, N-(2,5-Dimethoxyphenyl)-N'-{4-[(6,7-dimethoxy-4-quinolyl)oxy]phenyl}urea]",7
3,"COc1cc2nccc(Oc3ccc(C(=O)c4ccc(N5CCCCC5)cc4)cc3)c2cc1OC [Compound 290, {4-[(6,7-Dimethoxy-4-quinolyl)oxy]phenyl}[4-piperidinophenyl]methanone]",55
4,"COc1cc2nccc(Oc3ccc(NC(=O)Nc4ccc(F)c(F)c4F)cc3)c2cc1OC [Compound 257, N-(2,3,4-Trifluorophenyl)-N'-{4-[(6,7-dimethoxy-4-quinolyl)oxy]phenyl}urea]",7
5,COc1cc2nccc(Oc3ccc(NC(=O)Nc4cccc(N(C)C)c4)cc3)c2cc1OC [Compound 192],4
6,"COc1cc2nccc(Oc3ccc(NC(=O)Nc4c(F)cc(F)cc4F)cc3)c2cc1OC [Compound 256, N-(2,4,6-Trifluorophenyl)-N'-{4-[(6,7-dimethoxy-4-quinolyl)oxy]phenyl}urea]",4
7,COc1cc2nccc(Oc3ccc(NC(=O)NC(C)C)cc3)c2cc1OC [Compound 135],43
8,"COc1cc2nccc(Oc3ccc(NC(=O)NCc4cccnc4)cc3)c2cc1OC [Compound 249, N-(4-[(6,7-Dimethoxy-4-quinolyl)oxy]phenyl)-N'-(3-pyridylmethyl) urea]",41
9,"COc1cc2nccc(Oc3ccc(NC(=O)NCCCCl)cc3)c2cc1OC [Compound 278, N-(3-Chloropropyl)-N'-{4-[(6,7-dimethoxy-4-quinolyl)oxy]phenyl}urea]",3
10,"COc1cc2nccc(Oc3ccc(NC(=O)c4ccc(N(C)C)cc4)cc3)c2cc1OC [Compound 67, N-{4-[(6,7-Dimethoxy-4-quinolinyl)oxy]phenyl}-(N,N-dimethylaminophenyl)carboxamide]",110
11,"COc1cc(NC(=O)Nc2ccc(Oc3ccnc4cc(OC)c(OC)cc34)cc2)cc(OC)c1 [Compound 259, N-(3,5-Dimethoxyphenyl)-N'-{4-[(6,7-dimethoxy-4-quinolyl)oxy]phenyl}urea]",5
12,"COc1cc2nccc(Oc3ccc(NC(=O)Nc4ccccc4N)cc3)c2cc1OC [Compound 169, N-(2-Aminophenyl)-N'-{4-[(6,7-dimethoxy-4-quinolyl)oxy]phenyl}urea]",4
13,"COc1ccccc1NC(=O)Nc1ccc(Oc2ncnc3cc(OC)c(OC)cc23)cc1 [Compound 113, N-{4-[(6,7-Dimethoxy-4-quinazolinyl)oxy]phenyl)-N'-(2-methoxyphenyl)urea]",4
14,"COc1cc2nccc(Oc3ccc(NC(=O)Nc4ccc(Oc5ccccc5)cc4)cc3)c2cc1OC [Compound 50, N-{4-[(6,7-Dimethoxy-4-quinolinyl)oxy]phenyl}-N'-(4-phenoxyphenyl)urea]",67
15,COc1cc2nccc(Oc3ccc(NC(=O)Nc4ccc(C)cc4)cc3)c2cc1OC [Compound 131],3
16,"COc1cc2nccc(Oc3ccc(C(=O)c4ccc(N5CCCC5)cc4)cc3)c2cc1OC [Compound 289, (4-[{6,7-Dimethoxy-4-quinolyl)oxy]phenyl)[4-pyrrolidinophenyl]methanone]",32
17,"COc1cc2nccc(Oc3ccc(NC(=O)NCc4ccc(C(C)(C)C)cc4)cc3)c2cc1OC [Compound 248, N-[(4-tert-Butylphenyl)methyl]-N'-{4-[(6,7-dimethoxy-4-quinolyl)oxy]phenyl}urea]",63
18,"CCOC(=O)c1cccc(NC(=O)Nc2ccc(Oc3ccnc4cc(OC)c(OC)cc34)cc2)c1 [Compound 233, N-(3-Ethoxycarbonylphenyl)-N'-{4-[(6,7-dimethoxy-4-quinolyl)oxy]phenyl}urea]",13
19,"COCCCNC(=O)Nc1ccc(Oc2ccnc3cc(OC)c(OC)cc23)cc1 [Compound 245, N-(3-Methoxypropyl)-N'-{4-[(6,7-dimethoxy-4-quinolyl)oxy]phenyl}urea]",6
20,"COc1cc2nccc(Oc3ccc(NC(=O)C4CCCC4)cc3)c2cc1OC [Compound 79, N-{4-[(6,7-Dimethoxy-4-quinolinyl)oxy]phenyl}cyclopentanecarboxamide]",340

row,Compound,IC50 [nM]
1,"COc1ccc(NC(=O)Nc2ccc(Oc3ccnc4cc(OC)c(OC)cc34)cc2)c(OC)c1 [Compound 265, N-(2,4-Dimethoxyphenyl)-N'-{4-[(6,7-dimethoxy-4-quinolyl)oxy]phenyl}urea]",5
2,"COc1cc2nccc(Oc3ccc(NC(=O)c4ccc(C(C)=O)cc4)cc3)c2cc1OC [Compound 68, N-{4-[(6,7-Dimethoxy-4-quinolinyl)oxy]phenyl}-(4-acetylphenyl)carboxamide]",440
3,"COc1cc2nccc(Oc3ccc(NC(=O)Nc4cc(OC)c(OC)c(OC)c4)cc3)c2cc1OC [Compound 271, N-(3,4,5-Trimethoxyphenyl)-N'-{4-[(6,7-dimethoxy-4-quinolyl)oxy]phenyl}urea]",4
4,"COc1cc2nccc(Oc3ccc(NC(=O)Nc4ccc(Oc5ccc(F)cc5)nc4)cc3)c2cc1OC [Compound 279, N-{5-[2-(4-fluoro)phenoxy]-pyridyl}-N'-(4-[(6,7-dimethoxy-4-quinolyl)oxy]phenyl}urea]",29
5,"COc1cc2nccc(Oc3ccc(NC(=O)Nc4ccc([N+](=O)[O-])cc4Cl)cc3)c2cc1OC [Compound 224, N-(2-Chloro-4-nitrophenyl)-N'-{4-[(6,7-dimethoxy-4-quinolyl)oxy]phenyl}urea]",87
6,"COc1cc2nccc(Oc3ccc(NC(=O)NC(=O)c4ccccc4)cc3)c2cc1OC [Compound 189, N-Benzoyl-N'-{4-[(6,7-dimethoxy-4-quinolyl)oxy]phenyl}urea]",11
7,"COc1cc2nccc(Oc3ccc(NC(=O)Nc4ccc(Cl)c([N+](=O)[O-])c4)cc3)c2cc1OC [Compound 228, N-(4-Chloro-3-nitrophenyl)-N'-{4-[(6,7-dimethoxy-4-quinolyl)oxy]phenyl}urea]",55
8,"COc1cc(OC)c(NC(=O)Nc2ccc(Oc3ccnc4cc(OC)c(OC)cc34)cc2)cc1Cl [Compound 241, N-(3-Chloro-4,6-dimethoxyphenyl)-N'-{4-[(6,7-dimethoxy-4-quinolyl)oxy]phenyl}urea]",18
9,"COc1cc2nccc(Oc3ccc(NC(=O)Nc4ccc(C(=O)c5ccccc5)cc4)cc3)c2cc1OC [Compound 195, N-{4-[(6,7-Dimethoxy-4-quinolyl)oxy]phenyl}-N'-(4-phenylcarbonylphenyl)urea]",79
10,"COc1cc2nccc(Oc3ccc(NC(=O)Nc4ccccc4SC)cc3)c2cc1OC [Compound 276, N-(2-Methylthiophenyl)-N'-{4-[(6,7-dimethoxy-4-quinolyl)oxy]phenyl}urea]",5
11,"COc1cc2nccc(Oc3ccc(NC(=O)NCc4ccccn4)cc3)c2cc1OC [Compound 247, N-(4-[(6,7-Dimethoxy-4-quinolyl)oxy]phenyl)-N'-(2-pyridylmethyl)urea]",9
12,"COc1cc2nccc(Oc3ccc(NC(=O)Nc4ccccc4)cc3)c2cc1OC [Compound 167, N-{4-[(6,7-Dimethoxy-4-quinolyl)oxy]phenyl}-N'-phenylurea]",4
13,"COc1cc2nccc(Oc3ccc4[nH]ccc4c3)c2cc1OC [Compound 16, 6,7-Dimethoxy-4-(5-indolyloxy)quinoline]",50
14,"COc1cc2nccc(Oc3ccc(NC(=O)Nc4ccccc4-c4ccccc4)cc3)c2cc1OC [Compound 175, N-(2-Biphenyl)-N'-{4-[(6,7-dimethoxy-4-quinolyl)oxy]phenyl}urea]",6
15,"COc1cccc(NC(=O)Nc2ccc(Oc3ncnc4cc(OC)c(OC)cc34)cc2)c1 [Compound 114, N-{4-[(6,7-Dimethoxy-4-quinazolinyl)oxy]phenyl}-N'-(3-methoxyphenyl)urea]",4
16,"N-(2-Chloro-3-methylphenyl)-N'-{4-[(6,7-dimethoxy-4-quinolyl)oxy]phenyl}urea [Compound 243]",14
17,"COc1cc2nccc(Oc3ccc(C(=O)c4ccc(N5CCOCC5)cc4)cc3)c2cc1OC [Compound 288, {4-[(6,7-Dimethoxy-4-quinolyl)oxy]phenyl}[4-morpholinophenyl]methanone]",24
18,"CCc1ccc(NC(=O)Nc2ccc(Oc3ccnc4cc(OC)c(OC)cc34)cc2)cc1 [Compound 188, N-(4-Ethylphenyl)-N'-{4-[(6,7-dimethoxy-4-quinolyl)oxy]phenyl}urea]",6
19,"CCCCc1ccc(C(=O)Nc2ccc(Oc3ccnc4cc(OC)c(OC)cc34)cc2)cc1 [Compound 69, N-{4-[(6,7-Dimethoxy-4-quinolinyl)oxy]phenyl}-(4-butylphenyl)carboxamide]",50
20,"COc1cccc(Oc2ccnc3cc(OC)c(OC)cc23)c1 [Compound 2, 6,7-Dimethoxy-4-(3-methoxyphenoxy)quinoline]",440
